Data set [1] can be described thus: Solubility of peptides and lipopeptides in saline (visual inspection). Format: physicochemical. The conditions noted are these: for solubility / appearance of solution: visual inspection. As to the method:
FIG. 2 is a photographic representation showing the solubilities of lipopeptides designated [Th]-Lys(Pam2Cys-Ser-Ser)-[B] (left) and Pam2Cys-Ser-Ser-[Th]-[B] (right) in FIG. 1, wherein the polypeptide moieties have the amino acid sequences set forth in SEQ ID NO: 7 and SEQ ID NO: 5, respectively. Both solutions are approximately 1 mg/ml lipopeptide in saline solution.
Enhanced solubility was most evident in those cases where lipid was attached between the two epitopes at the approximate centre of the molecule. The lipopeptides designated [Th]-Lys(Pam2Cys)-[B] and [Th]-Lys(Pam3Cys)-[B] were soluble in saline at concentrations of at least 8 mg/ml (no higher concentrations were examined), whereas constructs in which lipid was attached to the N-terminus of the sequence formed opalescent solutions at concentrations as low as 0.25 mg/ml.
We considered that the insoluble nature of this construct would prevent it from being considered as a viable proposition for manufacture as a vaccine.

The subject of the next data set is female mice. The format is in vivo, BALB/c mice. The conditions noted are these: for Pregnancy status (No. of animals per group that dropped litters): fertility experiment initiated two weeks after second dose; for Incidence of pregnancy 13 weeks after 2nd Dose / Incidence of pregnancy 2 weeks after 2nd Dose: 20 nmoles subcutaneously; for Incidence of pregnancy 13 weeks after 2nd Dose: animals per group of five; for Incidence of pregnancy 2 weeks after 2nd Dose: animals that dropped litters per group of five.

Another data set concerns D1 cells. The format is cell-based, BALB/c mouse.
In another data set the test system is M1 GAS strain. Kind of data set: Survival of inoculated mice after intranasal challenge with GAS. The settings on record: Quackenbush mice, challenge two weeks after last dose. Format: in vivo, Group A Streptococcus.
Data set [2] concerns J14. The conditions noted are these: Quackenbush mice, 60 μg intranasally, three doses at 21-day intervals, seven days after final dose; versus control groups.
Experimental: The lipoamino acid moiety Pam2Cys-Ser-Ser was added to an internal lysine positioned between the T-helper epitope and the B-cell epitope in all lipopeptides tested. In the lipopeptide [Th]-Lys(Pam2Cys-Ser-Ser)-[J14], this is the only lipid moiety, whereas in the lipopeptide Pam2Cys-Ser-Ser-[Th]-Lys(Pam2Cys-Ser-Ser)-[J14], an additional lipoamino acid moiety Pam2Cys-Ser-Ser was added to the N-terminal amino group of the T-helper epitope. […] Seven days following the final dose mice were bled from the tail vein and J14-specific serum IgG was determined.
ELISA assays were carried out on serum samples as described essentially by Ghosh et al., Int Immun. […] The titres of antibody are expressed as the reciprocal of the highest dilution of serum to achieve an OD of 0.2, which represents approximately 5 times the background binding in the absence of antibody. The isotype of antibodies specific for LHRH or J14 was determined using rabbit antisera directed against mouse IgM, IgG1, IgG2a, IgG2b, IgG3 or IgA (ICN Pharmaceuticals Inc., Costa Mesa, Calif.) as previously described by Ghosh et al., Int Immun.
Female outbred Quackenbush mice 4-6 weeks old (15/group) were inoculated intranasally with 60 μg of peptide-based vaccine in a total volume of 30 μl PBS. […] Seven days following the final dose mice were bled from the tail vein and J14-specific serum IgG was determined.
Data set [3] deals with J14. The conditions noted are these: Quackenbush mice, 60 μg intranasally, three doses, eight days after final dose; versus control groups.
Experimental: Female outbred Quackenbush mice 4-6 weeks old (15/group) were inoculated intranasally with 60 μg of each peptide-based vaccine in a total volume of 30 μl PBS. Mice received three doses of vaccine at 21-day intervals. Eight days following the final dose saliva was collected from individual mice and the average J14-specific salivary IgA antibody titres were determined by standard ELISA.
Female outbred Quackenbush mice 4-6 weeks old (15/group) were inoculated intranasally with 60 μg of peptide-based vaccine in a total volume of 30 μl PBS. Mice received three doses of vaccine at 21-day intervals. […] Eight days following the final dose saliva was collected from individual mice and the average J14-specific salivary IgA antibody titres were determined by standard ELISA.
In data set [4] the test system is J14. The settings on record: Quackenbush mice, 60 μg intranasally, three doses, 6 days after last dose.
Experimental: Female outbred Quackenbush mice 4-6 weeks old (15/group) were inoculated intranasally with 60 μg of peptide-based vaccine in a total volume of 30 μl PBS. Mice received three doses of vaccine at 21-day intervals. Fecal IgA was determined 6 days following the last dose of antigen.

“And” between values parts separate entries of the source, which are not always exact repeats. Equal values may be shown once. “Also recorded” adds a separate entry of the source. Read-outs that look alike come from different tables or passages of the source. Where no end group is shown, it is not given here. Pam3Cys = lipoamino acid of Formula (III) conjugated to the N-terminus; Pam2Cys = lipid of Formula (II)

Experimental for M1 GAS strain: Two weeks after the last dose of antigen, mice were challenged intranasally with M1 GAS strain and survival determined at various time points afterwards.
Female outbred Quackenbush mice 4-6 weeks old (15/group) were inoculated intranasally with 60 μg of peptide-based vaccine in a total volume of 30 μl PBS. Mice received three doses of vaccine at 21-day intervals. […] Two weeks after the last dose of antigen, mice were challenged intranasally with M1 GAS strain and survival determined at various time points afterwards.

With `CCCCCCCCCCCCCCCC(=O)OCC(CSC[C@H](N)C(=O)N[C@@H](CO)C(=O)N[C@@H](CO)C(=O)NCC(=O)N[C@@H](C)C(=O)N[C@@H](CC(C)C)C(=O)N[C@@H](CC(N)=O)C(=O)N[C@@H](CC(N)=O)C(=O)N[C@@H](CCCNC(=N)N)C(=O)N[C@@H](Cc1ccccc1)C(=O)N[C@@H](CCC(N)=O)C(=O)N[C@H](C(=O)N[C@@H](CCCCN)C(=O)NCC(=O)N[C@H](C(=O)N[C@@H](CCC(=O)O)C(=O)N[C@@H](CC(C)C)C(=O)N[C@@H](CCCCN)C(=O)N[C@@H](CO)C(=O)N[C@@H](CCC(=O)O)C(=O)N[C@@H](Cc1c[nH]cn1)C(=O)N[C@@H](Cc1c[nH]c2ccccc12)C(=O)N[C@@H](CO)C(=O)N[C@@H](Cc1ccc(O)cc1)C(=O)NCC(=O)N[C@@H](CC(C)C)C(=O)N[C@@H](CCCNC(=N)N)C(=O)N1CCC[C@H]1C(=O)NCC(=O)O)C(C)C)[C@@H](C)CC)OC(=O)CCCCCCCCCCCCCCC` (stereo partly drawn) [Pam2Cys-Ser-Ser-[Th]—[B]], the “solubility / appearance of solution” value in data set [1] is “opalescent”.

Regarding `CCCCCCCCCCCCCCCC(=O)OCC(CSC[C@H](N)C(=O)NCCCC[C@H](NC(=O)[C@H](CO)NC(=O)[C@H](CCCCN)NC(=O)[C@H](CC(C)C)NC(=O)[C@H](CCC(=O)O)NC(=O)[C@@H](NC(=O)CNC(=O)[C@H](CCCCN)NC(=O)[C@@H](NC(=O)[C@H](CCC(N)=O)NC(=O)[C@H](Cc1ccccc1)NC(=O)[C@H](CCCNC(=N)N)NC(=O)[C@H](CC(N)=O)NC(=O)[C@H](CC(N)=O)NC(=O)[C@H](CC(C)C)NC(=O)[C@H](C)NC(=O)CN)[C@@H](C)CC)C(C)C)C(=O)N[C@@H](CCC(=O)O)C(=O)N[C@@H](Cc1c[nH]cn1)C(=O)N[C@@H](Cc1c[nH]c2ccccc12)C(=O)N[C@@H](CO)C(=O)N[C@@H](Cc1ccc(O)cc1)C(=O)NCC(=O)N[C@@H](CC(C)C)C(=O)N[C@@H](CCCNC(=N)N)C(=O)N1CCC[C@H]1C(=O)NCC(=O)O)OC(=O)CCCCCCCCCCCCCCC` (some centres unmarked) [[Th]-Lys(Pam2Cys)-[B]], in data set [1] (no higher concentrations were examined, read-out: soluble in saline at concentrations of at least), the solubility was at least 8000 µg/mL.

As for `CCCCCCCCCCCCCCCC(=O)OCC(CSC[C@H](N)C(=O)N[C@@H](CO)C(=O)N[C@@H](CO)C(=O)NCCCC[C@H](NC(=O)[C@H](CO)NC(=O)[C@H](CCCCN)NC(=O)[C@H](CC(C)C)NC(=O)[C@H](CCC(=O)O)NC(=O)[C@@H](NC(=O)CNC(=O)[C@H](CCCCN)NC(=O)[C@@H](NC(=O)[C@H](CCC(N)=O)NC(=O)[C@H](Cc1ccccc1)NC(=O)[C@H](CCCNC(=N)N)NC(=O)[C@H](CC(N)=O)NC(=O)[C@H](CC(N)=O)NC(=O)[C@H](CC(C)C)NC(=O)[C@H](C)NC(=O)CN)[C@@H](C)CC)C(C)C)C(=O)N[C@@H](CCC(=O)O)C(=O)N[C@@H](Cc1c[nH]cn1)C(=O)N[C@@H](Cc1c[nH]c2ccccc12)C(=O)N[C@@H](CO)C(=O)N[C@@H](Cc1ccc(O)cc1)C(=O)NCC(=O)N[C@@H](CC(C)C)C(=O)N[C@@H](CCCNC(=N)N)C(=O)N1CCC[C@H]1C(=O)NCC(=O)O)OC(=O)CCCCCCCCCCCCCCC` (stereo partly drawn) [[Th]-Lys(Pam2Cys-Ser-Ser)-[B]], in data set [1], the “solubility / appearance of solution” value is listed as “clear; also recorded: higher solubility”.

In the case of GALNNRFQIKGVELKSEHWSYGLRPG [[Th]—[B]], the “Pregnancy status (No. of animals per group that dropped litters)” value in the data set on female mice (1 nmole, subcutaneous) was 3/5; in the data set on female mice (10 nmole, subcutaneous), 1/5. Besides, the “Incidence of pregnancy 13 weeks after 2nd Dose” value (shortened to “Incidence of pregnancy 13 weeks”) was 0/5 in the data set with female mice and “still infertile” with female mice (listed as [Th]-[B]). Besides, the entries for the “Incidence of pregnancy 2 weeks after 2nd Dose” value (shortened to “Incidence of pregnancy 2 weeks”) in the data set with female mice and in the data set with female mice (listed as [Th]-[B]) were 0/5 and “None of the mice”, respectively. The “Pregnancy No. animals per group that dropped litters” value in the data set with female mice (subcutaneous, initiated two weeks after second dose) is given as 0/5.

Consider “GALNNRFQIKGVELKSKEHWSYGLRPG [[Th]-Lys-[B]]”, for which, in the data set on female mice, the “Incidence of pregnancy 13 weeks” value is “still infertile and 0/5”; the “Incidence of pregnancy 2 weeks” value is “None of the mice and 0/5”. Besides, the D1 maturation rate entry in the data set on D1 cells is on record as “about 26%”.

On to “Pam2Cys-[Th]—[B]: lipid of Formula (II) conjugated to the N-terminus of peptide [Th]-[B] (SEQ ID NO: 5) (Pam2Cys-GALNNRFQIKGVELKSEHWSYGLRPG)”, for which, in the data set with female mice, the “Incidence of pregnancy 13 weeks” value is 3/5 and the “Incidence of pregnancy 2 weeks” value is 2/5. In addition, in the data set on female mice (listed as Pam2Cys-[Th]-[B]), the “Incidence of pregnancy 2 weeks” value was “two animals”. Moreover, the “ability to cause maturation of DC / up-regulate MHC class II expression (FIG. 5)” value in the data set with D1 cells was “least effective”.

Consider “Pam3Cys-Ser-Ser-[Th]—[B]: lipoamino acid of Formula (III) conjugated to the N-terminus of peptide [Th]-[B] (SEQ ID NO: 5) (Pam3Cys-SSGALNNRFQIKGVELKSEHWSYGLRPG)”, for which the “solubility / appearance of solution” value in data set [1] is “so insoluble that it could not be purified by RP-HPLC”. In the data set with female mice, the “Incidence of pregnancy 13 weeks” value was 0/5 and the “Incidence of pregnancy 2 weeks” value is listed as 2/5. The “Incidence of pregnancy 2 weeks” value in the data set on female mice (listed as Pam3Cys-Ser-Ser-[Th]-[B]) was “two animals”.

On to “[Th]-Lys(Pam2Cys-Ser-Ser)-[J14]: P25-Lys-J14 (SEQ ID NO: 106) with Pam2Cys-Ser-Ser on the internal lysine between the epitopes (KLIPNASLIENCTKAELKKQAEDKVKASREAKKQVEKALEQLEDKVK; not fully specified (residue 18); also: Pam2Cys-Ser-Ser on internal lysine between the epitopes (K18 or K19))”, for which the “survival following intranasal challenge with GAS (FIG. 16)” value with M1 GAS strain is on record as “best survival”. In addition, the “J14-specific serum IgG titres (FIG. 12)” value in the data set on J14 [2] is “significantly higher (P<0.05) serum IgG titres”. The “J14-specific salivary IgA titres (FIG. 14)” value in the data set with J14 [3] is given as “far superior”. In the data set on J14 [4], the “faecal IgA titres (FIG. 15)” value is listed as “significant (P<0.05) faecal IgA titres”.

Regarding “[Th]-[J14]: non-lipidated peptide of T-helper epitope P25 (SEQ ID NO: 24) and J14 (SEQ ID NO: 101) (KLIPNASLIENCTKAELKQAEDKVKASREAKKQVEKALEQLEDKVK)”, in the data set with M1 GAS strain, the “survival following intranasal challenge with GAS (FIG. 16)” value is given as “some protective immunity”.

These data come from patent US7569225B2, “Immunogenic lipopeptides comprising T-helper and B-cell epitopes” (The Council of The Queensland Institute of Medical Research, priority 2002, dated 2009).
